From patent US12077503B2, “Substituted cyclic amides and their use as herbicides” (FMC CORPORATION, priority 2015, dated 2024)

Tests used:
Type in all cases: in vivo
Kochia (Kochia scoparia) [1] = assay: Test A preemergence; settings: Bassia scoparia, pre-emergence, 240 h; for pest or weed control at 125 g/ha: 125 g ai/ha, Preemergence, visual injury rating after approximately 10 d, read-out: Kochia plant response rating (0 to 100 scale, 0 is no effect, 100 is complete control); for pest or weed control at 500 g/ha: 500 g ai/ha, preemergence, visual injury rating about 10 d after treatment, 0 to 100 scale (0 no effect, 100 complete control), read-out: Kochia plant response rating
Summary of the method: (§1)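 Preemergence directed soil spray on seeded pots, or postemergence application to plants 2–10 cm, one- to two-leaf. Solvent mixture non-phytotoxic, with surfactant. Scored ~10 d later, visually, 0–100 vs untreated.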

[2] = tested on: barnyardgrass (Echinochloa crus-galli); assay: Test A preemergence; settings: Echinochloa crus-galli, pre-emergence, 240 h; for pest or weed control at 125 g/ha: 125 g ai/ha, Preemergence, visual injury rating after approximately 10 d, read-out: Barnyardgrass plant response rating (0 to 100 scale, 0 is no effect, 100 is complete control); for pest or weed control at 500 g/ha: 500 g ai/ha, preemergence, visual injury rating about 10 d after treatment, 0 to 100 scale (0 no effect, 100 complete control), read-out: Barnyardgrass plant response rating
Summary of the method: as §1

[3] = tested on: giant foxtail (Setaria faberii); assay: Test A preemergence; settings: Setaria faberi, pre-emergence, 240 h; for pest or weed control at 125 g/ha: 125 g ai/ha, Preemergence, visual injury rating after approximately 10 d, read-out: Foxtail, Giant plant response rating (0 to 100 scale, 0 is no effect, 100 is complete control); for pest or weed control at 500 g/ha: 500 g ai/ha, preemergence, visual injury rating about 10 d after treatment, 0 to 100 scale (0 no effect, 100 complete control), read-out: Foxtail, Giant plant response rating
Summary of the method: as §1

[4] = tested on: pigweed (Amaranthus retroflexus); assay: Test A preemergence; settings: Amaranthus retroflexus, pre-emergence, 240 h; for pest or weed control at 125 g/ha: 125 g ai/ha, Preemergence, visual injury rating after approximately 10 d, read-out: Pigweed plant response rating (0 to 100 scale, 0 is no effect, 100 is complete control); for pest or weed control at 500 g/ha: 500 g ai/ha, preemergence, visual injury rating about 10 d after treatment, 0 to 100 scale (0 no effect, 100 complete control), read-out: Pigweed plant response rating
[5] = tested on: ragweed (common ragweed, Ambrosia elatior); assay: Test A preemergence; settings: Ambrosia artemisiifolia, pre-emergence, 240 h; for pest or weed control at 125 g/ha: 125 g ai/ha, Preemergence, visual injury rating after approximately 10 d, read-out: Ragweed plant response rating (0 to 100 scale, 0 is no effect, 100 is complete control); for pest or weed control at 500 g/ha: 500 g ai/ha, preemergence, visual injury rating about 10 d after treatment, 0 to 100 scale (0 no effect, 100 complete control), read-out: Ragweed plant response rating
Summary of the method: as §1

[6] = tested on: ryegrass, Italian (Italian ryegrass, Lolium multiflorum); assay: Test A preemergence; settings: Lolium multiflorum, pre-emergence, 240 h; for pest or weed control at 125 g/ha: 125 g ai/ha, Preemergence, visual injury rating after approximately 10 d, read-out: Ryegrass, Italian plant response rating (0 to 100 scale, 0 is no effect, 100 is complete control); for pest or weed control at 500 g/ha: 500 g ai/ha, preemergence, visual injury rating about 10 d after treatment, 0 to 100 scale (0 no effect, 100 complete control), read-out: Ryegrass, Italian plant response rating
Summary of the method: as §1

[7] = tested on: Galium (catchweed bedstraw, Galium aparine); assay: Test A postemergence; settings: Galium, post-emergence, 240 h, 125 g ai/ha, Postemergence; visual injury after approximately 10 d; 0 to 100 scale where 0 is no effect and 100 is complete control; read-out: Plant response rating, Galium
Summary of the method: as §1

Kochia (Kochia scoparia) [8] = assay: Test A postemergence; settings: Bassia scoparia, post-emergence, 240 h, 125 g ai/ha, Postemergence; visual injury after approximately 10 d; 0 to 100 scale where 0 is no effect and 100 is complete control; read-out: Plant response rating, Kochia
Summary of the method: as §1

[9] = tested on: blackgrass (Alopecurus myosuroides); assay: Test A postemergence; settings: Alopecurus myosuroides, post-emergence, 240 h, 125 g ai/ha, Postemergence; visual injury after approximately 10 d; 0 to 100 scale where 0 is no effect and 100 is complete control; read-out: Plant response rating, Blackgrass
Summary of the method: as §1

corn (Zea mays) = assay: Test A postemergence; settings: Zea mays, post-emergence, 240 h, 125 g ai/ha, Postemergence; visual injury after approximately 10 d; 0 to 100 scale where 0 is no effect and 100 is complete control
Summary of the method: as §1

[10] = tested on: giant foxtail (Setaria faberii); assay: Test A postemergence; settings: Setaria faberi, post-emergence, 240 h, 125 g ai/ha, Postemergence; visual injury after approximately 10 d; 0 to 100 scale where 0 is no effect and 100 is complete control; read-out: Plant response rating, Foxtail, Giant
Summary of the method: as §1

[11] = tested on: pigweed (Amaranthus retroflexus); assay: Test A postemergence; settings: Amaranthus retroflexus, post-emergence, 240 h, 125 g ai/ha, Postemergence; visual injury after approximately 10 d; 0 to 100 scale where 0 is no effect and 100 is complete control; read-out: Plant response rating, Pigweed
Summary of the method: as §1

[12] = tested on: ragweed (common ragweed, Ambrosia elatior); assay: Test A postemergence; settings: Ambrosia artemisiifolia, post-emergence, 240 h, 125 g ai/ha, Postemergence; visual injury after approximately 10 d; 0 to 100 scale where 0 is no effect and 100 is complete control; read-out: Plant response rating, Ragweed
Summary of the method: as §1

[13] = tested on: ryegrass, Italian (Italian ryegrass, Lolium multiflorum); assay: Test A postemergence; settings: Lolium multiflorum, post-emergence, 240 h, 125 g ai/ha, Postemergence; visual injury after approximately 10 d; 0 to 100 scale where 0 is no effect and 100 is complete control; read-out: Plant response rating, Ryegrass, Italian
Summary of the method: as §1

[14] = tested on: wheat (Triticum aestivum); assay: Test A postemergence; settings: Triticum aestivum, post-emergence, 240 h, 125 g ai/ha, Postemergence; visual injury after approximately 10 d; 0 to 100 scale where 0 is no effect and 100 is complete control; read-out: Plant response rating, Wheat
Summary of the method: as §1

[15] = tested on: barnyardgrass (Echinochloa crus-galli); assay: Test B flooded paddy test; settings: Echinochloa crus-galli, Flood, 250 g ai/ha; scale of 0 to 100 where 0 is no effect and 100 is complete control; read-out: Barnyardgrass plant response rating
Summary of the method: (§2)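 Evaluation by eye, against controls, occurred 13–15 d post-treatment in a greenhouse, using a 0 (no effect) to 100 (complete control) scale. Application was into the paddy water, 3 cm deep over the soil, on 2-leaf plants.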

[16] = tested on: ducksalad (Heteranthera limosa); assay: Test B flooded paddy test; settings: Heteranthera limosa, Flood, 250 g ai/ha; scale of 0 to 100 where 0 is no effect and 100 is complete control; read-out: Ducksalad plant response rating
Summary of the method: as §2

rice (Oryra sativa) = assay: Test B flooded paddy test; settings: Oryza sativa, Flood, 250 g ai/ha; scale of 0 to 100 where 0 is no effect and 100 is complete control; read-out: Rice plant response rating
Summary of the method: as §2

[17] = tested on: sedge, umbrella (small-flower umbrella sedge, Cyperus difformis); assay: Test B flooded paddy test; settings: Cyperus difformis, Flood, 250 g ai/ha; scale of 0 to 100 where 0 is no effect and 100 is complete control; read-out: Sedge, Umbrella plant response rating
Summary of the method: as §2

| Compound | pest or weed control at 125 g/ha (Kochia (Kochia scoparia) [1]) [%] | pest or weed control at 500 g/ha (Kochia (Kochia scoparia) [1]) [%] | pest or weed control at 125 g/ha [2] [%] | pest or weed control at 500 g/ha [2] [%] | pest or weed control at 125 g/ha [3] [%] | pest or weed control at 500 g/ha [3] [%] | pest or weed control at 125 g/ha [4] [%] | pest or weed control at 500 g/ha [4] [%] | pest or weed control at 500 g/ha [5] [%] | pest or weed control at 125 g/ha [6] [%] | pest or weed control at 500 g/ha [6] [%] | pest or weed control at 125 g/ha [7] [%] | pest or weed control at 125 g/ha (Kochia (Kochia scoparia) [8]) [%] | pest or weed control at 125 g/ha [9] [%] | Corn plant response rating (crop injury, 0 = no effect, 100 = complete kill) at 125 g/ha (corn (Zea mays)) [%] | pest or weed control at 125 g/ha [10] [%] | pest or weed control at 125 g/ha [11] [%] | pest or weed control at 125 g/ha [12] [%] | pest or weed control at 125 g/ha [13] [%] | plant injury at 125 g/ha [14] [%] | other results |
| --- | --- | --- | --- | --- | --- | --- | --- | --- | --- | --- | --- | --- | --- | --- | --- | --- | --- | --- | --- | --- | --- |
| CN1C[C@H](c2cc(F)cc(Cl)c2)[C@@H](C(=O)Nc2cccc(F)c2F)C1=O [Compound 974] | 90 | 100 | 90 | 100 | 90 | 90 | 20 | 60 | 90 | 70 | 90 | 50 | 70 | 70 | 70 | 90 | 40 | 20 | 70 | 70 | pest or weed control at 125 g/ha [5]: 90%; pest or weed control at 250 g/ha [15]: 60%; pest or weed control at 250 g/ha [16]: 100%; pest or weed control at 250 g/ha (rice (Oryra sativa)): 15%; pest or weed control at 250 g/ha [17]: 0% |
| CN1C[C@H](c2cc(F)cc(Cl)c2)[C@@H](C(=O)Nc2ccccc2F)C1=O [Compound 976] | 70 | 90 | 90 | 100 | 90 | 90 | 0 | 50 | 90 | 50 | 80 | 0 | 30 | 40 | 60 | 90 | 0 | 0 | 20 | 40 | pest or weed control at 250 g/ha [15]: 65%; pest or weed control at 250 g/ha [16]: 95%; pest or weed control at 250 g/ha (rice (Oryra sativa)): 20%; pest or weed control at 250 g/ha [17]: 0% |
| COc1cc(OC)cc([C@H]2CN(C)C(=O)[C@@H]2C(=O)Nc2ccccc2F)c1 [Compound 980] | 0 | 90 | 90 | 100 | 90 | 100 | 0 | 0 | 20 | 20 | 30 | 0 | 0 | 0 | 0 | 90 | 0 | 0 | 0 | 0 | pest or weed control at 125 g/ha [5]: 0%; pest or weed control at 250 g/ha [15]: 60%; pest or weed control at 250 g/ha [16]: 0%; pest or weed control at 250 g/ha (rice (Oryra sativa)): 30%; pest or weed control at 250 g/ha [17]: 0% |
| CSc1ccccc1NC(=O)[C@H]1C(=O)N(C)C[C@@H]1c1ccc(C)c(F)c1 [Compound 983] | 90 | 90 | 90 | 100 | 100 | 100 | 0 | 40 | 100 | 30 | 60 | 30 | 50 | 30 | 20 | 90 | 0 | 0 | 20 | 30 | pest or weed control at 125 g/ha [5]: 70%; pest or weed control at 250 g/ha [15]: 30%; pest or weed control at 250 g/ha [16]: 100%; pest or weed control at 250 g/ha (rice (Oryra sativa)): 0%; pest or weed control at 250 g/ha [17]: 0% |
